Data: patent publication US11534457B2, “Use of dextran sulfate” (priority 2017, dated 2022)
Marks after values point to notes of the source that are not given here.

Key:
[1] = system: SAg system [PBMC and HUVEC+TCR ligands]; test: BioMAP SAg system; type: cell-based, Human
Description: In this study LMW-DS was characterized by profiling in the BioMAP® Diversity PLUS panel. The BioMAP® panel consists of human primary cell-based systems designed to model different aspects of the human body in an in vitro format. The 12 systems in the BioMAP® Diversity PLUS panel (Table 32) allow test agent characterization in an unbiased way across a broad set of systems modeling various human disease states. The BioMA®P systems are constructed with one or more primary cell types from healthy human donors, with stimuli, such as cytokines or growth factors, added to capture relevant signaling networks that naturally occur in human tissue or pathological conditions. […]
Systems are derived from either single cell types or co-culture systems. […] Test agents prepared in either DMSO (small molecules; final concentration 0.1%) or PBS (biologics) are added at the indicated concentrations 1-hr before stimulation, and remain in culture for 24-hrs or as otherwise indicated (48-hrs, MyoF system; 72-hrs, BT system (soluble readouts); 168-hrs, BT system (secreted IgG)). […] Soluble factors from supernatants are quantified using either HTRF® detection, bead-based multiplex immunoassay or capture ELISA. Overt adverse effects of test agents on cell proliferation and viability (cytotoxicity) are detected by sulforhodamine B (SRB) staining, for adherent cells, and alamarBlue® reduction for cells in suspension. […]

[2] = system: severe traumatic brain injury (sTBI); test: sTBI in rats, HPLC of free amino acids and amino group containing compounds in brain (Example 3); type: in vivo, Male Wistar rats
[3] = Acute phase 1: 15 mg/kg s.c. 30 min post-sTBI, sacrifice 2 days
[4] = Acute phase 2: 15 mg/kg s.c. 30 min post-sTBI, sacrifice 7 days
[5] = Chronic phase: 15 mg/kg s.c. 3 days post-sTBI, sacrifice 7 days

Substance: low molecular weight dextran sulfate [LMW-DS]
- Increased biomarker activity [1]: IL-8
- compounds of the methyl cycle (Met, L-Cystat, SAH) ([2]; 15 mg/kg s.c.): significant beneficial effects
- sTBI-induced increase in brain glutamate (GLU) ([2]; 15 mg/kg s.c. 30 min after sTBI): remarkable inhibition
- brain glutamate (excitotoxicity marker) ([2]; 15 mg/kg s.c. injected 3 days after sTBI): no efficacy
- ALA, cerebral concentration [2, 3]: 0.50 ± 0.12^a μmol/g (w.w.)
- ARG, cerebral concentration [2, 3]: 0.13 ± 0.02^b,d μmol/g (w.w.)
- ASN, cerebral concentration [2, 3]: 0.12 ± 0.02^i μmol/g (w.w.)
- ASP, cerebral concentration [2, 3]: 2.40 ± 0.56^d,i μmol/g (w.w.)
- CITR, cerebral concentration [2, 3]: 0.018 ± 0.004 µmol/g (w.w.)
- GABA, cerebral concentration [2, 3]: 1.43 ± 0.25^a μmol/g (w.w.)
- GLN, cerebral concentration [2, 3]: 4.78 ± 1.09^a μmol/g (w.w.)
- GLU, cerebral concentration [2, 3]: 9.81 ± 1.66^i μmol/g (w.w.)
- GLY, cerebral concentration [2, 3]: 0.83 ± 0.25^a,c μmol/g (w.w.)
- HIS, cerebral concentration [2, 3]: 0.068 ± 0.015^b μmol/g (w.w.)
- ILE, cerebral concentration [2, 3]: 0.038 ± 0.007 µmol/g (w.w.)
- L-Cystat, cerebral concentration [2, 3]: 0.185 ± 0.031^b,c,i μmol/g (w.w.)
- LEU, cerebral concentration [2, 3]: 0.021 ± 0.005^a,c μmol/g (w.w.)
- LYS, cerebral concentration [2, 3]: 0.236 ± 0.057^b,d,h μmol/g (w.w.)
- MET, cerebral concentration [2, 3]: 0.016 ± 0.005^d,j μmol/g (w.w.)
- ORN, cerebral concentration [2, 3]: 0.014 ± 0.007 µmol/g (w.w.)
- PHE, cerebral concentration [2, 3]: 0.031 ± 0.011^b,d μmol/g (w.w.)
- SAH, cerebral concentration [2, 3]: 0.033 ± 0.008^b,c,j μmol/g (w.w.)
- SER, cerebral concentration [2, 3]: 0.88 ± 0.25^a μmol/g (w.w.)
- TAU, cerebral concentration [2, 3]: 4.86 ± 0.85^b μmol/g (w.w.)
- THR, cerebral concentration [2, 3]: 0.92 ± 0.29^a μmol/g (w.w.)
- TRP, cerebral concentration [2, 3]: 0.030 ± 0.007^b,dg,i μmol/g (w.w.)
- TYR, cerebral concentration [2, 3]: 0.15 ± 0.03 µmol/g (w.w.)
- VAL, cerebral concentration [2, 3]: 0.042 ± 0.011 µmol/g (w.w.)
- ALA, cerebral concentration [2, 4]: 0.52 ± 0.24^a,e μmol/g (w.w.)
- ARG, cerebral concentration [2, 4]: 0.16 ± 0.03 µmol/g (w.w.)
- ASN, cerebral concentration [2, 4]: 0.13 ± 0.03^i μmol/g (w.w.)
- ASP, cerebral concentration [2, 4]: 2.94 ± 0.98^f,j μmol/g (w.w.)
- CITR, cerebral concentration [2, 4]: 0.018 ± 0.008 µmol/g (w.w.)
- GABA, cerebral concentration [2, 4]: 1.60 ± 0.24^a μmol/g (w.w.)
- GLN, cerebral concentration [2, 4]: 3.66 ± 0.41 µmol/g (w.w.)
- GLU, cerebral concentration [2, 4]: 9.93 ± 1.56^e,i μmol/g (w.w.)
- GLY, cerebral concentration [2, 4]: 0.71 ± 0.16^f,i μmol/g (w.w.)
- HIS, cerebral concentration [2, 4]: 0.055 ± 0.019 µmol/g (w.w.)
- ILE, cerebral concentration [2, 4]: 0.048 ± 0.017^a μmol/g (w.w.)
- L-Cystat, cerebral concentration [2, 4]: 0.173 ± 0.038^b,f,i μmol/g (w.w.)
- LEU, cerebral concentration [2, 4]: 0.018 ± 0.004 µmol/g (w.w.)
- LYS, cerebral concentration [2, 4]: 0.32 ± 0.04^a,e,i μmol/g (w.w.)
- MET, cerebral concentration [2, 4]: 0.022 ± 0.006^b,e,i μmol/g (w.w.)
- ORN, cerebral concentration [2, 4]: 0.011 ± 0.005 µmol/g (w.w.)
- PHE, cerebral concentration [2, 4]: 0.028 ± 0.010 µmol/g (w.w.)
- SAH, cerebral concentration [2, 4]: 0.026 ± 0.010^f,i μmol/g (w.w.)
- SER, cerebral concentration [2, 4]: 0.71 ± 0.28^b μmol/g (w.w.)
- TAU, cerebral concentration [2, 4]: 3.80 ± 1.19 µmol/g (w.w.)
- THR, cerebral concentration [2, 4]: 0.66 ± 0.23 µmol/g (w.w.)
- TRP, cerebral concentration [2, 4]: 0.015 ± 0.006 µmol/g (w.w.)
- TYR, cerebral concentration [2, 4]: 0.172 ± 0.046^b,f μmol/g (w.w.)
- VAL, cerebral concentration [2, 4]: 0.057 ± 0.017 µmol/g (w.w.)
- ALA, cerebral concentration [2, 5]: 0.57 ± 0.28^a,e μmol/g (w.w.)
- ARG, cerebral concentration [2, 5]: 0.14 ± 0.02 µmol/g (w.w.)
- ASN, cerebral concentration [2, 5]: 0.18 ± 0.02^a μmol/g (w.w.)
- ASP, cerebral concentration [2, 5]: 4.46 ± 0.70^a,f μmol/g (w.w.)
- CITR, cerebral concentration [2, 5]: 0.020 ± 0.006 µmol/g (w.w.)
- GABA, cerebral concentration [2, 5]: 1.85 ± 0.65^a μmol/g (w.w.)
- GLN, cerebral concentration [2, 5]: 3.98 ± 0.34 µmol/g (w.w.)
- GLU, cerebral concentration [2, 5]: 13.58 ± 1.28^a μmol/g (w.w.)
- GLY, cerebral concentration [2, 5]: 1.05 ± 0.13^a,f μmol/g (w.w.)
- HIS, cerebral concentration [2, 5]: 0.047 ± 0.021 µmol/g (w.w.)
- ILE, cerebral concentration [2, 5]: 0.041 ± 0.016^b μmol/g (w.w.)
- L-Cystat, cerebral concentration [2, 5]: 0.26 ± 0.05^a,f μmol/g (w.w.)
- LEU, cerebral concentration [2, 5]: 0.024 ± 0.032^b,f μmol/g (w.w.)
- LYS, cerebral concentration [2, 5]: 0.179 ± 0.036 µmol/g (w.w.)
- MET, cerebral concentration [2, 5]: 0.009 ± 0.004^b μmol/g (w.w.)
- ORN, cerebral concentration [2, 5]: 0.017 ± 0.009^a,e μmol/g (w.w.)
- PHE, cerebral concentration [2, 5]: 0.033 ± 0.011^b μmol/g (w.w.)
- SAH, cerebral concentration [2, 5]: 0.050 ± 0.013^a μmol/g (w.w.)
- SER, cerebral concentration [2, 5]: 0.93 ± 0.27^a,e μmol/g (w.w.)
- TAU, cerebral concentration [2, 5]: 4.49 ± 0.43^a μmol/g (w.w.)
- THR, cerebral concentration [2, 5]: 0.75 ± 0.24^a,e μmol/g (w.w.)
- TRP, cerebral concentration [2, 5]: 0.012 ± 0.007 µmol/g (w.w.)
- TYR, cerebral concentration [2, 5]: 0.21 ± 0.05^f μmol/g (w.w.)
- VAL, cerebral concentration [2, 5]: 0.040 ± 0.016^b μmol/g (w.w.)
